The values that follow come from PMC5761330 (ACS chemical biology, 2017).

For one assay, the system named is CMV-Luc. In words: CMV-Luc counter-screen in HEK293 cells. The format is cell-based. The note with it: increasing concentrations. For orientation: A counterscreen serves to expose hits that act by an unwanted route or on another target.
In a further assay the target is Pax5 (Homo sapiens, UniProt Q02548). Description: PRS4-Luc reporter activation by Pax5 in HEK293 cells. Format: cell-based. As to conditions: dose response.
The target of another assay is Pax8 (Homo sapiens, UniProt Q06710). Description: PRS4-Luc reporter activation by Pax8 in HEK293 cells. Format: cell-based. The note with it: dose response.
The subject of assay [1] is BRE-Luc (P-Smad mediated transactivation). In words: BMP dependent luciferase reporter. The format is cell-based. The note with it: HEK293 cells, in the presence of BMP4, increasing amounts. For orientation: A reporter such as luciferase makes a cellular process visible.
A further assay concerns the target Pax2 (Mus musculus, UniProt P32114). Description: PRS4-EGFP reporter, Western blot of EGFP. Format: cell-based. As to conditions: PRS4-EGFP cells, increasing concentrations.
The target of assay [2] is recombinant Pax2 paired domain (amino acids 1–170) / PRS oligo (Mus musculus, UniProt P32114). Description: Electrophoretic mobility shift assay. Format: biochemical. The note with it: EMSA. For orientation: Mobility shift assays separate free from complexed probe on a gel.
The subject of a further assay is E11.5 kidney rudiments. Description: Embryonic kidney organ culture, branching morphogenesis. More on the design: species or system mouse. As to conditions: 48 h, highest dose.
Another assay has as its system E11.5 lung rudiments. Description: Embryonic lung organ culture, branching morphogenesis. More on the design: species or system mouse. The note with it: 48 h, increasing concentrations.
Another assay relates to kidney organ cultures. Description: Pax2 target gene expression in kidney organ cultures. The note with it: kidney organ culture, 48 h. More on the design: species or system mouse.
Assay [3] relates to RCC111, TOV112D and ES-2 cells. In words: Cell viability. Format: cell-based. The note with it: 48 h, 12.5 and 25 µM, Pax2 positive cells.
Assay [4] concerns 22Rv1, PC-3 and SK-OV-3 cells. In words: Cell viability. As to conditions: 48 h, 12.5 and 25 µM, Pax2 negative cells. Format: cell-based.
For assay [5], the system named is RCC111, TOV112D and ES-2 cells. In words: Phospho-histone H3 Western blot, Pax2 positive cancer cell lines. The format is cell-based. As to conditions: increasing amounts.
The test system of assay [6] is 22Rv1, PC-3 and SK-OV-3 cells. In words: Phospho-histone H3 Western blot, Pax2 negative cancer cell lines. The note with it: increasing amounts. The format is cell-based.

recombinant Pax2 paired domain (amino acids 1–170) / PRS oligo, sequence (P32114 1-170): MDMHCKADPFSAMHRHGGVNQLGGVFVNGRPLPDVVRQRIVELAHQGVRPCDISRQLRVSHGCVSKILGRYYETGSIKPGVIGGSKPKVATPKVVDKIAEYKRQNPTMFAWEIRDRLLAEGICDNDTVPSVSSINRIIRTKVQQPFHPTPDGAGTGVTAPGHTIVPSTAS
Pax8, sequence (Q06710 whole entry, species assumed): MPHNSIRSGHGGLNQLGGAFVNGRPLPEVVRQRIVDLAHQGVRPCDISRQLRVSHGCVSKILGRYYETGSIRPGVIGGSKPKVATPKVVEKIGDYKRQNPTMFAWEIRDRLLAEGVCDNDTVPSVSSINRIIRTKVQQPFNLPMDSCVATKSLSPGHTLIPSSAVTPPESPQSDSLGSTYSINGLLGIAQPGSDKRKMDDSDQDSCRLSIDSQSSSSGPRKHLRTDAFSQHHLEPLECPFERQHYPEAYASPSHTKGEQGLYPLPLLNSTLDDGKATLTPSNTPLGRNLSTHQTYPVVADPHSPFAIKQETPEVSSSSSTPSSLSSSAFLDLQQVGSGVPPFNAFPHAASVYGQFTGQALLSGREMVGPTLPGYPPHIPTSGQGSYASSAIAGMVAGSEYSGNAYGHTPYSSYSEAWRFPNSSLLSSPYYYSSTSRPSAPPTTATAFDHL
Pax2, sequence (P32114 1-391 isoform P32114-2): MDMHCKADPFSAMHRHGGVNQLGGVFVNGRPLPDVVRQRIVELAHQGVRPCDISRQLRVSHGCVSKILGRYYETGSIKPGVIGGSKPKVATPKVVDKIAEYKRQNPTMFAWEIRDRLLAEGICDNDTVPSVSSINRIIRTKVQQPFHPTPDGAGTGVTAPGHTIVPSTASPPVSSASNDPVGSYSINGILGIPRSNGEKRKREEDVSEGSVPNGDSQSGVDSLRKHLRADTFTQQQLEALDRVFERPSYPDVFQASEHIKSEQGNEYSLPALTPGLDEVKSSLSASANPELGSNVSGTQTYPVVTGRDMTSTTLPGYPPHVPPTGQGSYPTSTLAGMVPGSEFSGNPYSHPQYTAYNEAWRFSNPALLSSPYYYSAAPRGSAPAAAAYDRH
Pax5, sequence (Q02548 whole entry, species assumed): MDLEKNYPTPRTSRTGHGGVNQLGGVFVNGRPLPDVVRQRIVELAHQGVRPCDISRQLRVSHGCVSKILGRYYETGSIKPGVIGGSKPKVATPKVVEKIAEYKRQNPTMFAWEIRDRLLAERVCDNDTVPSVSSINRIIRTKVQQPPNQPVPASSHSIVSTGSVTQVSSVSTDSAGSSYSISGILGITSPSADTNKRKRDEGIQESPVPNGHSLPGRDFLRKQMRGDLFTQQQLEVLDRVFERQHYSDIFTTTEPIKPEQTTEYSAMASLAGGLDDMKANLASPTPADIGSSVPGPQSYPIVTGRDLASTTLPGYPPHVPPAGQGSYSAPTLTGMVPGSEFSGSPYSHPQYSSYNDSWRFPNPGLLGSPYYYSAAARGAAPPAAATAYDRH

Regarding `COc1ccccc1C(=O)Nc1ccc(C(=O)Nc2ccccc2C(=O)O)cc1` [EG1], the “Inhibition of CMV-Luc in the counter-screen” value in the assay with CMV-Luc is on record as “no inhibitory effect”. Further, the “Inhibition of PRS4-Luc activation by Pax5” value at Pax5 is recorded as “able to inhibit”. In addition, the “Inhibition of PRS4-Luc activation by Pax8” value on Pax8 is given as “able to inhibit”. In addition, the “Effect on BRE-Luc reporter activity” value in assay [1] was “unaffected”. Moreover, on Pax2, the “Inhibition of Pax2 mediated expression of EGFP” value is given as “capable of inhibiting Pax2 mediated expression of EGFP”. Besides, the “Inhibition of Pax2-DNA binding” value in [2] (10 µM) is “Significant inhibition”; in assay [2] (100 µM), “near complete inhibition”. The “Inhibition of branching morphogenesis” value with E11.5 kidney rudiments is reported as “up to 75%”. Besides, the “Effect on branching morphogenesis” value in the assay with E11.5 lung rudiments is given as “no change in branching morphogenesis”. For the same compound, the “Cited1 and HNF4a expression, qRT-PCR” value in the assay with kidney organ cultures was “clear reduction”. For the same compound, in the assay with kidney organ cultures, the “Cited1 expression, whole mount in situ hybridization” value is “dramatic reduction in expression levels”. Besides, the “FoxD1, Msx1 and Twist2 (stromal genes) expression, qRT-PCR” value in the assay with kidney organ cultures is “increased levels”. Also, the Cell viability result is on record as “significant decrease in cell viability” in assay [3] and “none of the Pax2 negative cells were affected” in assay [4]. Also, the “Levels of phospho–histone H3 (P–H3)” value in [5] was “decreased levels of P–H3”; in assay [6] it was “unchanged”.
